This note sets out measurements from ChEMBL document CHEMBL5724914, “Linking interpersonal differences in gut microbiota composition and drug biotransformation activity” (2024).

The nature of data set [1]: The drug is tested on Z-023 corresponding to metagenome with ENA study accession number: PRJEB37062 and ENA sample accession number: ERS12561822 for biotransformation under anaerobic condition. The drug concentrations were measured over 9 timepoints collected between 0 and 24 hours of incubation by liquid-chromatography-coupled mass spectrometry (LC–MS). To be noted: 2 µM.

Data set [2] is described as follows: The drug is tested on Z-020 corresponding to rabbit gut metagenome with ENA study accession number: PRJEB37062 and ENA sample accession number: ERS12561819 for biotransformation under anaerobic condition. The drug concentrations were measured over 9 timepoints collected between 0 and 24 hours of incubation by liquid-chromatography-coupled mass spectrometry (LC–MS). To be noted: 2 µM.

Data set [3] in a line: The drug is tested on Z-018 corresponding to pig gut metagenome with ENA study accession number: PRJEB37062 and ENA sample accession number: ERS12561817 for biotransformation under anaerobic condition. The drug concentrations were measured over 9 timepoints collected between 0 and 24 hours of incubation by liquid-chromatography-coupled mass spectrometry (LC–MS). To be noted: 2 µM.

Data set [4] can be described thus: The drug is tested on Z-007 corresponding to rat gut metagenome with ENA study accession number: PRJEB37062 and ENA sample accession number: ERS12561807 for biotransformation under anaerobic condition. The drug concentrations were measured over 9 timepoints collected between 0 and 24 hours of incubation by liquid-chromatography-coupled mass spectrometry (LC–MS). The following applies: 2 µM.

The nature of data set [5]: The drug is tested on Z-002 corresponding to rabbit gut metagenome with ENA study accession number: PRJEB37062 and ENA sample accession number: ERS12561802 for biotransformation under anaerobic condition. The drug concentrations were measured over 9 timepoints collected between 0 and 24 hours of incubation by liquid-chromatography-coupled mass spectrometry (LC–MS). To be noted: 2 µM.

Data set [6] can be described thus: The drug is tested on WLS-170 corresponding to human gut metagenome with ENA study accession number: PRJEB37062 and ENA sample accession number: ERS12561762 for biotransformation under anaerobic condition. The drug concentrations were measured over 9 timepoints collected between 0 and 24 hours of incubation by liquid-chromatography-coupled mass spectrometry (LC–MS). To be noted: 2 µM.

Data set [7] is described as follows: The drug is tested on WLS-098 corresponding to human gut metagenome with ENA study accession number: PRJEB37062 and ENA sample accession number: ERS12561754 for biotransformation under anaerobic condition. The drug concentrations were measured over 9 timepoints collected between 0 and 24 hours of incubation by liquid-chromatography-coupled mass spectrometry (LC–MS). To be noted: 2 µM.

The nature of data set [8]: The drug is tested on WLS-082 corresponding to human gut metagenome with ENA study accession number: PRJEB37062 and ENA sample accession number: ERS12561751 for biotransformation under anaerobic condition. The drug concentrations were measured over 9 timepoints collected between 0 and 24 hours of incubation by liquid-chromatography-coupled mass spectrometry (LC–MS). To be noted: 2 µM.

The nature of data set [9]: The drug is tested on WLS-052 corresponding to human gut metagenome with ENA study accession number: PRJEB37062 and ENA sample accession number: ERS12561747 for biotransformation under anaerobic condition. The drug concentrations were measured over 9 timepoints collected between 0 and 24 hours of incubation by liquid-chromatography-coupled mass spectrometry (LC–MS). The following applies: 2 µM.

The nature of data set [10]: The drug is tested on WLS-006 corresponding to human gut metagenome with ENA study accession number: PRJEB37062 and ENA sample accession number: ERS12561741 for biotransformation under anaerobic condition. The drug concentrations were measured over 9 timepoints collected between 0 and 24 hours of incubation by liquid-chromatography-coupled mass spectrometry (LC–MS). To be noted: 2 µM.

The conditions of data set [11]: human gut metagenome, 24 h, 2 µM.
For data set [12] the following is noted: human gut metagenome, 24 h, 2 µM. The source holds these as a separate data set.
For data set [13] the following is noted: human gut metagenome, 24 h, 2 µM. This is another data set of the same source.
For data set [14] the following is noted: human gut metagenome, 24 h, 2 µM. This is another data set of the same source.
For data set [15] the following is noted: human gut metagenome, 24 h, 2 µM. This is another data set of the same source.
For data set [16] the following is noted: human gut metagenome, 24 h, 2 µM. The source holds these as a separate data set.
For data set [17] the following is noted: human gut metagenome, 24 h, 2 µM. This is another data set of the same source.
For data set [18] the following is noted: human gut metagenome, 24 h, 2 µM. This is another data set of the same source.
The conditions of data set [19]: human gut metagenome, 24 h, 2 µM. This is another data set of the same source.
For data set [20] the following is noted: human gut metagenome, 24 h, 2 µM. The source holds these as a separate data set.
Further: call rule not given here.

Take `O=C1NCC2(CCN(CCc3ccccc3)CC2)O1` [FENSPIRIDE]: the “Bacterial Biotransformation” value is on record as “Compound NOT metabolized” in data set [1]; “Compound NOT metabolized” in [2]; “Compound NOT metabolized” in [3]; “Compound NOT metabolized” in data set [4]; “Compound metabolized” in data set [5]; “Compound NOT metabolized” in [6]. Moreover, the “Bacterial Biotransformation” value in data set [7], in data set [8], in data set [9], in data set [10], in data set [11] and in [12] was “Compound NOT metabolized” each time. Besides, the “Bacterial Biotransformation” value in data set [13], in data set [14], in [15], in data set [16], in data set [17] and in data set [18] was “Compound NOT metabolized” in each case. The “Bacterial Biotransformation” value in [19] and in data set [20] was “Compound NOT metabolized” in each case.
`OC(Cn1cncn1)(Cn1cncn1)c1ccc(F)cc1F` [FLUCONAZOLE]: the “Bacterial Biotransformation” value in data set [1] is “Compound metabolized”; in data set [2] it was “Compound NOT metabolized”; in [3], “Compound NOT metabolized”; in [4] it was “Compound NOT metabolized”; in data set [5], “Compound metabolized”; in [6], “Compound metabolized”. The “Bacterial Biotransformation” value in data set [7] is given as “Compound metabolized”; in data set [8] it was “Compound metabolized”; in data set [9] it was “Compound NOT metabolized”; in data set [10], “Compound metabolized”; in [11], “Compound NOT metabolized”; in data set [12] it was “Compound metabolized”. The “Bacterial Biotransformation” value was “Compound metabolized” in data set [13]; “Compound metabolized” in data set [14]; “Compound NOT metabolized” in data set [15]; “Compound NOT metabolized” in data set [16]; “Compound metabolized” in data set [17]; “Compound metabolized” in [18]. Moreover, the entries for the “Bacterial Biotransformation” value in data set [19] and in data set [20] were “Compound NOT metabolized” and “Compound metabolized”, respectively.
As for `CNCCC(Oc1ccc(C(F)(F)F)cc1)c1ccccc1` (stereo not given) [FLUOXETINE], the “Bacterial Biotransformation” value in data set [1], in data set [2], in [3], in [4], in data set [5] and in data set [6] was “Compound NOT metabolized” throughout. Besides, the “Bacterial Biotransformation” value is given as “Compound NOT metabolized” in data set [7]; “Compound NOT metabolized” in data set [8]; “Compound NOT metabolized” in data set [9]; “Compound NOT metabolized” in data set [10]; “Compound NOT metabolized” in [11]; “Compound metabolized” in [12]. Also, the “Bacterial Biotransformation” value is “Compound NOT metabolized” in data set [13]; “Compound NOT metabolized” in [14]; “Compound metabolized” in [15]; “Compound NOT metabolized” in [16]; “Compound NOT metabolized” in [17]; “Compound metabolized” in [18]. Also, the “Bacterial Biotransformation” value in data set [19] and in data set [20] was “Compound NOT metabolized” in each case.
For `O=C(CCCN1CCC(O)(c2ccc(Cl)cc2)CC1)c1ccc(F)cc1` [HALOPERIDOL], the “Bacterial Biotransformation” value in data set [1] is “Compound metabolized”; in [2], “Compound NOT metabolized”; in data set [3], “Compound NOT metabolized”; in [4], “Compound NOT metabolized”; in data set [5], “Compound metabolized”; in data set [6], “Compound metabolized”. Besides, the “Bacterial Biotransformation” value in data set [7] is recorded as “Compound metabolized”; in data set [8], “Compound metabolized”; in data set [9], “Compound NOT metabolized”; in data set [10] it was “Compound metabolized”; in data set [11], “Compound NOT metabolized”; in data set [12] it was “Compound NOT metabolized”. For the same compound, the “Bacterial Biotransformation” value in [13] is listed as “Compound NOT metabolized”; in data set [14], “Compound metabolized”; in [15] it was “Compound NOT metabolized”; in [16], “Compound NOT metabolized”; in data set [17] it was “Compound NOT metabolized”; in data set [18], “Compound NOT metabolized”. Further, the “Bacterial Biotransformation” value in [19] is “Compound NOT metabolized”; in [20], “Compound metabolized”.
Take `CCCCC1=NC2(CCCC2)C(=O)N1Cc1ccc(-c2ccccc2-c2nnn[nH]2)cc1` [IRBESARTAN]: the “Bacterial Biotransformation” value in [1] is on record as “Compound metabolized”; in [2], “Compound metabolized”; in data set [3], “Compound metabolized”; in [4], “Compound NOT metabolized”; in data set [5] it was “Compound metabolized”; in data set [6], “Compound metabolized”. The “Bacterial Biotransformation” value in data set [7], in data set [8], in data set [9], in data set [10], in [11] and in [12] was “Compound metabolized” each time. The “Bacterial Biotransformation” value was “Compound metabolized” in data set [13]; “Compound metabolized” in data set [14]; “Compound NOT metabolized” in [15]; “Compound metabolized” in data set [16]; “Compound metabolized” in data set [17]; “Compound metabolized” in data set [18]. Further, the “Bacterial Biotransformation” value in [19] and in data set [20] was “Compound metabolized” throughout.
Consider `NC(CO)(CO)CO.O=C(c1ccccc1)c1ccc2n1CCC2C(=O)O` (stereo not given) [KETOROLAC TROMETHAMINE], for which the “Bacterial Biotransformation” value was “Compound metabolized” in data set [1]; “Compound metabolized” in data set [2]; “Compound NOT metabolized” in [3]; “Compound NOT metabolized” in data set [4]; “Compound metabolized” in [5]; “Compound metabolized” in data set [6]. Also, the “Bacterial Biotransformation” value in data set [7], in data set [8], in data set [9], in data set [10], in data set [11] and in [12] was “Compound metabolized” in each case. In addition, the “Bacterial Biotransformation” value in data set [13], in data set [14], in data set [15], in data set [16], in data set [17] and in [18] was “Compound metabolized” throughout. Further, the “Bacterial Biotransformation” value in data set [19] and in data set [20] was “Compound metabolized” each time.
